We go through ten molecules from ChEMBL document CHEMBL1146842, “Design, synthesis, and biological evaluations of novel quinolones as HIV-1 non-nucleoside reverse transcriptase inhibitors” (Bioorg Med Chem Lett, 2006).

One may read the EC50 as the concentration needed to bring the measured effect to its halfway point. Usually CC50 stands for the concentration giving 50% cytotoxicity.

Assay [1] deals with Human immunodeficiency virus 1. The assay can be described thus: Antiviral activity against HIV1 E138K mutant. The class given is functional, organism-based.
Assay [2] deals with Human immunodeficiency virus 1. The assay can be described thus: Antiviral activity against HIV1. Type of assay: functional, organism-based.
Assay [3] deals with Human immunodeficiency virus 1. The assay can be described thus: Antiviral activity against HIV1 Y188L mutant. Type of assay: functional, organism-based.
The subject of assay [4] is Human immunodeficiency virus 1. Description: Antiviral activity against HIV1 Y181C mutant. Type of assay: functional, organism-based.
In assay [5] the test system is Human immunodeficiency virus 1. Description: Antiviral activity against HIV1 L100I mutant. Type of assay: functional, organism-based.
In assay [6] the test system is Human immunodeficiency virus 1. The assay can be described thus: Antiviral activity against HIV1 V106A mutant. Type of assay: functional, organism-based.
In the next assay the test system is HEK293. Description: Cytotoxicity against HEK293T cells. Type of assay: functional. Particulars: Homo sapiens.
Assay [7] relates to Human immunodeficiency virus 1. Description: Antiviral activity against HIV1 V179E mutant. Type of assay: functional, organism-based.
The test system of assay [8] is Human immunodeficiency virus 1. Description: Antiviral activity against HIV1 F227L mutant. Type of assay: functional, organism-based.
Assay [9] deals with Human immunodeficiency virus 1. Description: Antiviral activity against HIV1 Y181S mutant. The class given is functional, organism-based.
The test system of assay [10] is Human immunodeficiency virus 1. The assay can be described thus: Antiviral activity against HIV1 I135V mutant. Type of assay: functional, organism-based.
Assay [11] concerns Human immunodeficiency virus 1. Description: Antiviral activity against HIV1 Y181H mutant. Type of assay: functional, organism-based.
Assay [12] concerns Human immunodeficiency virus 1. The assay can be described thus: Antiviral activity against HIV1 K103N mutant. The class given is functional, organism-based.

Molecules are shown by their SMILES.

On to `C=CCCCC12CC1(C(=O)OCC)C(=O)Nc1ccc(Cl)cc12` (stereo not given), for which the EC50 was 0.057 µM in assay [1]; 0.001 µM in [2]; more than 10 µM in assay [3]; more than 10 µM in assay [4]; 0.035 µM in assay [5]; 0.26 µM in assay [6]. Further, the EC50 in assay [7] stood at 0.304 µM; in assay [8], 0.009 µM; in [9] it was 1.68 µM; in assay [10], 0.033 µM; in [11], 0.089 µM; in assay [12] it was 1.25 µM. Besides, the CC50 in the assay on HEK293 is more than 10 µM.
Consider `CCCCCCC12CC1(C(=O)OCC)C(=O)Nc1ccc(Cl)cc12` (stereo not given), for which the EC50 in [1] is 0.098 µM; in assay [2], 0.025 µM; in assay [3] it was more than 10 µM; in assay [4], 2.25 µM; in assay [5], 0.053 µM; in assay [6] it was 0.878 µM. For the same molecule, the EC50 in assay [7] was found to be 1.6 µM; in assay [8] it was 0.041 µM; in assay [9], 0.929 µM; in [10], 0.066 µM; in [11], 0.061 µM; in [12], 3.08 µM. The molecule further came in with a CC50 in the assay with HEK293 of more than 10 µM.
Regarding `CCCCC12CC1(COC)C(=O)Nc1ccc(Cl)cc12` (stereo not given), the EC50 in assay [1] was 0.042 µM; in assay [2], 0.045 µM; in [3], more than 10 µM; in assay [4] it was 5.03 µM; in assay [5], 0.033 µM; in assay [6], 0.726 µM. The EC50 in assay [7] was 0.721 µM; in assay [8], 0.02 µM; in [9], 2.7 µM; in [10], 0.046 µM; in assay [11] it was 0.121 µM; in assay [12], 2.92 µM. This molecule had a CC50 in the assay with HEK293 of more than 10 µM.
For the molecule `CCCCC12CC1(COC(C)=O)C(=O)Nc1ccc(Cl)cc12` (stereo not given), the concentration for a half-maximal effect (EC50) in assay [1] was 0.054 µM; in assay [2], 0.037 µM; in [3], more than 10 µM; in [4], 7.46 µM; in assay [5], 0.045 µM; in [6], 4.73 µM. Moreover, the EC50 in assay [7] turned out to be 0.735 µM; in [8], 0.001 µM; in [9], 2.35 µM; in [10], 0.064 µM; in assay [11], 0.059 µM; in assay [12], 2.62 µM. Moreover, the CC50 in the assay with HEK293 was more than 10 µM.
As for `CCCCCC12CC1(C(=O)OCC)C(=O)Nc1ccc(Cl)cc12` (stereo not given), the EC50 is 0.018 µM in assay [1]; 0.001 µM in assay [2]; more than 10 µM in [3]; 0.926 µM in assay [4]; 0.012 µM in assay [5]; 0.238 µM in assay [6]. The EC50 in assay [7] was 0.234 µM; in [8], 0.005 µM; in assay [9], 0.369 µM; in assay [10] it was 0.017 µM; in assay [11] it was 0.016 µM; in [12], 0.669 µM. Also, the CC50 with HEK293 was more than 10 µM.
Turning to `CCCCC12CC1(C(N)=O)C(=O)Nc1ccc(Cl)cc12` (stereo not given), the EC50 in assay [1] is 0.046 µM; in assay [2], 0.012 µM; in assay [3], more than 10 µM; in [4], 7.96 µM; in [5], 0.013 µM; in [6], 2.18 µM. Besides, the EC50 in [7] was 0.439 µM; in [8], 0.001 µM; in assay [9], 2.52 µM; in assay [10] it was 0.015 µM; in assay [11] it was 0.063 µM; in [12], 3.83 µM. For the same molecule, the CC50 with HEK293 is more than 10 µM.
On to `CCCCC12CC1(C(=O)OC)C(=O)Nc1ccc(Cl)cc12` (stereo not given), for which the EC50 in [1] turned out to be 0.008 µM; in assay [2], 0.001 µM; in assay [3], 7.34 µM; in assay [4], 0.727 µM; in assay [5], 0.004 µM; in assay [6], 0.057 µM. Besides, the EC50 in assay [7] is 0.244 µM; in assay [8], more than 10 µM; in assay [9], 0.581 µM; in [10], 0.012 µM; in assay [11] it was 0.008 µM; in [12] it was 0.682 µM. Further, in the assay on HEK293, the CC50 was more than 10 µM.
As for `C=CCOC(=O)C12CC1(CCCC)c1cc(Cl)ccc1NC2=O` (stereo not given), the EC50 in [1] was 0.032 µM; in assay [2], 0.001 µM; in [3] it was more than 10 µM; in assay [4] it was 2.94 µM; in assay [5] it was 0.001 µM; in [6], 1.22 µM. Moreover, the EC50 was determined as 0.233 µM in assay [7]; 0.001 µM in [8]; 0.932 µM in assay [9]; 0.023 µM in assay [10]; 0.02 µM in assay [11]; 1.08 µM in [12]. The same molecule had a CC50 in the assay with HEK293 of more than 10 µM.
Take `CCOC(=O)C12CC1(CC(C)C)c1cc(Cl)ccc1NC2=O` (stereo not given): the EC50 in assay [1] was 0.091 µM; in assay [2], 0.057 µM; in assay [3], more than 10 µM; in assay [4] it was more than 10 µM; in assay [5] it was 0.063 µM; in [6], 2.94 µM. Besides, the EC50 in [7] is 3.95 µM; in [8], 0.022 µM; in assay [9] it was 0.901 µM; in [10] it was 0.085 µM; in assay [11] it was 0.21 µM; in [12], more than 10 µM. For the same molecule, in the assay on HEK293, the CC50 was more than 10 µM.
As for `CCCCC12CC1(COCC)C(=O)Nc1ccc(Cl)cc12` (stereo not given), the EC50 was 0.094 µM in [1]; 0.065 µM in assay [2]; more than 10 µM in assay [3]; 6.24 µM in assay [4]; 0.039 µM in [5]; 1.12 µM in [6]. Further, the EC50 was 1.03 µM in assay [7]; 0.251 µM in assay [8]; 4.18 µM in [9]; 0.074 µM in assay [10]; 0.216 µM in assay [11]; 3.96 µM in assay [12]. Further, the CC50 in the assay on HEK293 was more than 10 µM.
